The record followed here is US7863446B2, “Heterocycles” (Orchid Research Laboratories Limited, priority 2006, dated 2011).

One data set addresses T1, COX-2 (Homo sapiens, UniProt P35354).
T1 construct: Fresh blood was collected in tubes containing sodium heparin by vein puncture from healthy male volunteers; endogenous in cells; host or cells: human whole blood from healthy male volunteers, stimulated with LPS
T1 sequence (P35354 18-604): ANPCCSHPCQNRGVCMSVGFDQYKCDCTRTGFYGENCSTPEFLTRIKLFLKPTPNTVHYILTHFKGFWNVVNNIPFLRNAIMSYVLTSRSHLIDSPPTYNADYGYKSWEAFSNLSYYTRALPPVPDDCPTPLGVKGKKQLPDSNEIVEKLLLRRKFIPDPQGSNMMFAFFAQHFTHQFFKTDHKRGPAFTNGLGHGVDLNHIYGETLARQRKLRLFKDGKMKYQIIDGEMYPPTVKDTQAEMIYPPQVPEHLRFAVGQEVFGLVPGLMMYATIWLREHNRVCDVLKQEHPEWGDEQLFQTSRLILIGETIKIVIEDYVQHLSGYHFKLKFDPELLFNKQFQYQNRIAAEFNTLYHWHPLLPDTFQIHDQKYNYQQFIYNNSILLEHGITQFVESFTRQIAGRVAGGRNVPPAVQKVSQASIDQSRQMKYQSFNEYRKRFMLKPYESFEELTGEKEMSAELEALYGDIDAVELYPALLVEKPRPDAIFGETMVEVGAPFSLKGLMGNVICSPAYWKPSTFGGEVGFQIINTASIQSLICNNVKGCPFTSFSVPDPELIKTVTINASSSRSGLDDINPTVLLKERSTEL
Description: Human whole blood assay (PGE-2 inhibition, COX-2). The format is cell-based. The note with it: LPS stimulated human whole blood, NA = No activity, read-out: % PGE-2 Inhibition in hWBA. The procedure: In Vitro Evaluation of Cyclooxygenase-2 (Cox-2) Inhibition Activity
The COX-2 inhibition activities of the compounds illustrated in the examples were determined by the following method.
Human whole blood provides a protein and cell rich milieu appropriate for the study of the biochemical efficacy of anti-inflammatory compounds such as selective COX-2 inhibitors. […] This correlates with the observation that COX-2 inhibitors have no effect on prostaglandin E2 (PGE2) production in normal blood. These inhibitors were active only after incubation of human blood with lipopolysaccharide (LPS), which induces COX-2 production in the blood.
Fresh blood was collected in tubes containing sodium heparin by vein puncture from healthy male volunteers. The subjects should have no apparent inflammatory conditions and should have not taken NSAIDs for at least 7 days prior to blood collection. Blood was preincubated with aspirin in vitro (12 μg/ml, at time zero) to inactivate COX-1 for 6 hours. Then test compounds (at various concentrations) or vehicle were added to blood, the blood was stimulated with LPS B:4 (10 μg/ml) and incubated for another 18 hours at 37° C. water bath. After which the blood was centrifuged, plasma was separated and stored at −80° C. (J. Pharmacol. Exp. Ther, 271, 1705, 1994; Proc. Natl. Acad. Sci. USA, 96, 7563, 1999). The plasma was assayed for PGE2 using Cayman ELISA kit as per the procedure outlined by the manufacturer (Cayman Chemicals, Ann Arbor, USA).

The next data set concerns IL-6. Nature of the data set: In vitro measurement of IL-6 in human PBMC (LPS stimulated). In kind it is cell-based. The procedure:
In Vitro Measurement of Interleukin-6(IL-6)
This assay determins the effect of test compounds on the production of IL-6 in human PBMC (Physiol. Res. 52: 593-598, 2003). Compounds were tested for their ability to inhibit the activity of IL-6 in human PBMC. PBMC were isolated from blood using BD Vacutainer CPT™ Cell preparation tube (BD Bio Science) and suspended in RPMI medium. The test compounds were pre-incubated with PBMC (0.5 million/incubation well) for 15 minutes at 37° C. and then stimulated with Lipopolysaccharide (Escherichia coli: B4; 1 μg/ml) for 18 hours at 37° C. in 5% CO2. The levels of IL-6 in cell culture medium were estimated using enzyme-linked immunosorbent assay performed in a 96 well format as per the procedure of the manufacturer (Cayman Chemical, Ann Arbor, USA).

The test system of data set [1] is TNF-α. Description: LPS induced sepsis for measurement of TNF-α inhibition in mice. The format is in vivo. The note with it: 50 mg/kg, oral, mice, serum 90 minutes after LPS. How it is done:
LPS Induced Sepsis for Measurement of TNF-α Inhibition in Mice
The LPS induced sepsis model in mice was performed as described by Les sekut et al (J Lab Clin Med 1994; 124:813-20). Female Swiss albino mice were selected and the body weights were equivalent within each group. The mice were fasted for 20 hours with free access to water. The mice were dosed orally with the test compound suspended in vehicle containing 0.5% Tween 80 in 0.25% Carboxy-methylcellulose sodium salt. The control mice were administered the vehicle alone. After 30 minutes of oral dosing, mice were injected with 500 μg of Lipopolysaccharide (Escherichia coli, LPS: B4 from Siga) in phosphate buffer saline solution into the intraperitoneal cavity of the mice. After 90 minutes of LPS administration mice were bled via retro-orbital sinus puncture. Blood samples were stored overnight at 4° C. Serum samples were collected by centrifuging the samples at 4000 rpm for 15 minutes at 4° C. Immediately the serum samples were analysed for TNF-α levels using commercially available mouse TNF-α ELISA kit (Amersham Biosciences) and assay was performed by the manufacturer instruction.
ED50 Measurement of TNF alpha Inhibition in Mice Sepsis Model

Data set [2] concerns TNF-α. Nature of the data set: In vitro measurement of TNF-α in human PBMC (LPS stimulated). In kind it is cell-based. The note with it: for inhibition at 1 µM: NA = No activity, read-out: TNF-α Inhibition (%) at Conc. (1 μM); for inhibition at 10 µM: read-out: TNF-α Inhibition (%) at Conc. (10 μM). How it is done: In Vitro Measurement of Tumor Necrosis Factor Alpha (TNF-α)
This assay determines the effect of test compounds on the production of TNF α in human Peripheral Blood Mononuclear Cells (PBMC). Compounds were tested for their ability to inhibit the activity of TNF α in human PBMC. PBMC were isolated from blood (of healthy volunteers) using BD Vacutainer CPT™ (Cell preparation tube, BD Bio Science) and suspended in RPMI medium (Physiol. Res. 52: 593-598, 2003). The test compounds were pre-incubated with PBMC (0.5 million/incubation well) for 15 minutes at 37° C. and then stimulated with Lipopolysaccharide (Escherichia coli: B4; 1 μg/ml) for 18 hours at 37° C. in 5% CO2. The levels of TNF-α in the cell culture medium were estimated using enzyme-linked immunosorbent assay performed in a 96 well format as per the procedure of the manufacturer (Cayman Chemical, Ann Arbor, USA).

In data set [3] the target is T2, purified recombinant COX-2 (Homo sapiens, UniProt P35354).
T2 sequence (P35354 18-604): T1 sequence (P35354 18-604)
Description: COX-2 enzyme based assay. The format is biochemical. To be noted: NA = No activity, read-out: % Inhibition in rEnzyme Assay COX-2. How it is done: (§1) COX-1 and COX-2 Enzyme Based Assay
(§2) COX-1 and COX-2 enzyme based assays were carried out to check the inhibitory potential of the test compounds on the production of prostaglandin by purified recombinant COX-1/COX-2 enzyme (Proc. Nat. Acad. Sci. USA, 88, 2692-2696, 1991; J. Clin. Immunoassay 15, 116-120, 1992) In this assay, the potential of the test compound to inhibit the production of prostaglandin either by COX-1 or COX-2 from arachidonic acid (substrate) was measured. This was an enzyme based in-vitro assay to evaluate selective COX inhibition with good reproducibility.
(§3) Arachidonic acid was converted to PGH2 (Intermediate product) by COX1/COX-2 in the presence or absence of the test compound. The reaction was carried out at 37° C. and after 2 minutes it was stopped by adding 1M HCl. Intermediate product PGH2 was converted to a stable prostanoid product PGF2αby SnCl2 reduction. The amount of PGF2α, produced in the reaction was inversely proportional to the COX inhibitory potential of the test compound. The prostanoid product was quantified via enzyme immunoassay (EIA) using a broadly specific antibody that binds to all the major forms of prostaglandin, using Cayman ELISA kit as per the procedure outlined by the manufacturer (Cayman Chemicals, Ann Arbor, USA).

The target of data set [4] is purified recombinant COX-1 (Homo sapiens, UniProt P23219). Nature of the data set: COX-1 enzyme based assay. The format is biochemical. To be noted: NA = No activity, read-out: % Inhibition in rEnzyme Assay COX-1. How it is done:
as §1, §2, §3

In a further data set the test system is PDE4. Nature of the data set: PDE4 activity. The format is biochemical. The note with it: source Human U937 cells. The procedure:
PDE4 Activity PDE4 inhibition was measured by following a literature assay procedure (Cortizo J et al., Br J Pharmacol., 1993, 108: 562-568. The assay method involves the following conditions. • Source: Human U937 cells • Substrate: 1.01 μM [^3H] camp+camp • Vehicle: 1% DMSO • Pre-Incubation Time/Temperature: 15 minutes at 25° C. • Incubation Time/Temperature. 20 minutes at 25° C. • Incubation buffer: 50 mM Tris-HCl, pH 7.5, 5 mM MgCl2 • Quantitation method: Quantitation of [^3H] Adenosine • Significance criteria: >50% of max stimulation or inhibition The results are tabulated as shown in the table XIII.

Sequence of purified recombinant COX-1 (P23219 24-599): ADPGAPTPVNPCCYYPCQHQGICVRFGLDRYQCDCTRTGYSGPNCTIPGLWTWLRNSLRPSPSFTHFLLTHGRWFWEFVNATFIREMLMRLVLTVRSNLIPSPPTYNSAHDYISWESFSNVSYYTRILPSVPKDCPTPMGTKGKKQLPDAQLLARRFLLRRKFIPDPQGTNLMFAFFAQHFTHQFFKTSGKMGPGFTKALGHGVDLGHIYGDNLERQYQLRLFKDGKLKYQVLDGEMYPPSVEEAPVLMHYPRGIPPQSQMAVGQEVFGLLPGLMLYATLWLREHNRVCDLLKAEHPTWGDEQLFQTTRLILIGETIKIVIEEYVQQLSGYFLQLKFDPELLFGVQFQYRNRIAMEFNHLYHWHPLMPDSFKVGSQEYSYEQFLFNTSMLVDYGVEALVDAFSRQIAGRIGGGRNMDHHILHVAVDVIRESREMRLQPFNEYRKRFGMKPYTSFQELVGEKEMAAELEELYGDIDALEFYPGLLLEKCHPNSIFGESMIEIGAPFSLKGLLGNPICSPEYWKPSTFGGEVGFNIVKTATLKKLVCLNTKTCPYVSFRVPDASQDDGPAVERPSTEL

As for `CS(=O)(=O)c1ccc(-c2nc(C(F)(F)F)nc(NN)c2-c2ccc(S(=O)(=O)NN)cc2)cc1` [Example 7, 4-{4-Hydrazino-6-[4-(methylsulfonyl)phenyl]-2-(trifluoromethyl)pyrimidin-5-yl}benzenesulfonohydrazide], the melting point fell in the range of 203 to 206 °C. In addition, the inhibition at 0.25 µM on COX-2 (0.25 μM) was 26.2%. Moreover, the inhibition at 1 µM on COX-2 (1 μM) was found to be 1.9%.
Turning to `CS(=O)(=O)c1ccc(-c2nc(C(F)(F)F)nc(OS(=O)(=O)c3cccc4ccccc34)c2-c2ccccc2)cc1` [Example 18, 6-[4-(Methylsulfonyl)phenyl]-5-phenyl-2-(trifluoromethyl)pyrimidin-4-ylnapthalenesulfonate], the melting point is 204 to 206 °C. Moreover, the inhibition at 1 µM with IL-6 (1 μM, read-out: IL-6 Inhibition (%) Conc. (1 μM)) is 32.8%. Besides, the inhibition at 10 µM in the data set with IL-6 (10 μM, read-out: IL-6 Inhibition (%) Conc. (10 μM)) came out at 41%.
Consider `NS(=O)(=O)c1ccc(-c2c(-c3ccc(F)cc3)nc(C(F)(F)F)nc2N2CCNCC2)cc1` [Example 30, 4-[4-(4-Fluorophenyl)-6-piperazin-1-yl-2-(trifluoromethyl)pyrimidin-5-yl]benzenesulfonamide], for which the “TNF-α Inhibition (%) at 50 mg/kg” value in the data set on TNF-α [1] is given as 84.84%. Also, in the data set with TNF-α [2], the inhibition at 1 µM worked out at 43.2% and the inhibition at 10 µM came to 100%.
For the compound `NS(=O)(=O)c1cccc(-c2c(-c3ccc(F)cc3)nc(C(F)(F)F)nc2N2CCN(c3ccccn3)CC2)c1` [Example 53, 3-[4-(4-Fluorophenyl)-6-(4-pyridin-2-ylpiperazin-1-yl)-2-(trifluoromethyl)pyrimidin-5-yl]benzenesulfonamide], the “TNF-α Inhibition (%) at 50 mg/kg” value with TNF-α [1] is on record as 70.93%. In data set [3], the inhibition at 1 µM is 20% and the inhibition at 10 µM amounted to 26.7%. Further, in data set [4], the inhibition at 1 µM came out at 46.3% and the inhibition at 10 µM was 56.9%.
With `NS(=O)(=O)c1cccc(-c2c(-c3ccc(F)cc3)nc(C(F)(F)F)nc2N2CCN(c3ncccn3)CC2)c1` [Example 54, 3-[4-(4-Fluorophenyl)-6-(4-pyrimidin-2-ylpiperazin-1-yl)-2-(trifluoromethyl)pyrimidin-5-yl]benzenesulfonamide], in the data set with TNF-α [1], the “TNF-α Inhibition (%) at 50 mg/kg” value is 63.44%. Moreover, the inhibition at 10 µM in data set [3] is 13.7%. In data set [4], the inhibition at 1 µM amounted to 34.4% and the inhibition at 10 µM was 45.5%.
As to `NS(=O)(=O)c1cccc(-c2c(-c3ccccc3)nc(C(F)(F)F)nc2N2CCN(c3ncccn3)CC2)c1` [Example 57], the “TNF-α Inhibition (%) at 50 mg/kg” value with TNF-α [1] worked out at 52.02%. The inhibition at 1 µM is 84.5% in the data set with TNF-α [2] and 8.29% in data set [3]. Further, the inhibition at 10 µM in the data set with TNF-α [2] was 88.9%; in data set [3], 0.66%; in data set [4], 5.7%.
Consider `NS(=O)(=O)c1cccc(-c2c(-c3ccc(F)cc3)nc(C(F)(F)F)nc2N2CCN(S(=O)(=O)C(F)(F)F)CC2)c1` [Example 77, 5-(3-Aminosulfonylphenyl)-4-(4-fluorophenyl)-2-(trifluoromethyl)-6-{4-[(trifluoromethyl)sulfonyl]piperazin-1-yl}pyrimidine], for which the “PDE4 inhibition at 10 μM (%)” value with PDE4 was 94%.
Still for that read-out and setting: under `N#CCCN1CCN(c2nc(C(F)(F)F)nc(-c3ccc(F)cc3)c2-c2cccc(S(N)(=O)=O)c2)CC1` [Example 99, 3-{4-[4-(2-Cyanoethyl)piperazin-1-yl]-6-(4-fluorophenyl)-2-(trifluoromethyl)pyrimidin-5-yl}benzenesulfonamide] stands 92%.
For the compound `NS(=O)(=O)c1cccc(-c2c(-c3ccccc3)nc(C(F)(F)F)nc2N2CCN(c3ccc(C(F)(F)F)cn3)CC2)c1` [Example 115], the “TNF-α Inhibition (%) at 50 mg/kg” value with TNF-α [1] was 54.23%. The inhibition at 1 µM in the data set on TNF-α [2] was 37.8%; in data set [4], 6.29%. Also, the inhibition at 10 µM was found to be 58.3% in the data set on TNF-α [2], 7.03% in data set [3] and 19.2% in data set [4].
